One test relates to NLRP3 inflammasome. The test can be described thus: IL-1β secretion assay in PMA-differentiated THP-1 cells, nigericin-activated (HTRF). Format: cell-based. The following applies: Homo sapiens, 15 μM nigericin, 3 hours, read-out: IL-1β IC50. The method, then:
10 μL supernatant was removed, and IL-1p levels were monitored using an HTRF assay (CisBio, #621L1PEC) according to manufacturers' instructions. Viability and pyroptosis was monitored with the addition of PrestoBlue cell viability reagent (Life Technologies, #A13261) directly to the cell culture plate.
IC50 values were calculated from the plot of percentage of inhibition versus the inhibitor concentration by a logistics fit according to: y=A2+(A1−A2)/(1+(x/IC50)^p) where y is the %-inhibition at the inhibitor concentration, x. A1 is the lowest inhibition value, i.e. 0%, and A2 the maximum inhibition value, i.e. 100%. The exponent, p, is the Hill coefficient. The curve fitting was conducted with an internally developed software suite.
NLRP3-dependent IL-1β secretion was stimulated in PMA-differentiated THP-1 cells by the addition of nigericin, and cytokines were measured in the […] after 3 hours. As discussed above, activation of the NLRP3 inflammasome requires both an NF-kB-dependent priming step and the addition of a NLRP3 activator.
In general terms: Time-resolved FRET reads energy transfer from a long-lived donor to a nearby acceptor.

Test [1] concerns NF-kB-dependent TNF-α secretion. The test can be described thus: TNF-α secretion assay in THP-1 cells (counter screen, HTRF). Format: cell-based. The following applies: Homo sapiens, Pam3CSK4-stimulated, 3 hours. The protocol:
Monocytic THP-1 cells were maintained according to providers' instructions in RPMI media as described above. […] Experimental compounds were prepared and added as described above. TNF-α secretion was triggered by the addition of either 1 μg/mL LPS (Sigma, #L4391) or 100 ng/mL Pam3CSK4 (Invivogen, #tlrl-pms) depending on the experiment, and cells were incubated for 3 hours. 10 μL supernatant was removed, and TNF-α levels were monitored using an HTRF assay (CisBio, #62TNFPEC) according to manufacturers' instructions. Viability was monitored as described above.
IC50 values were calculated from the plot of percentage of inhibition versus the inhibitor concentration by a logistics fit according to: y=A2+(A1−A2)/(1+(x/IC50)^p) where y is the %-inhibition at the inhibitor concentration, x. A1 is the lowest inhibition value, i.e. 0%, and A2 the maximum inhibition value, i.e. 100%. The exponent, p, is the Hill coefficient. The curve fitting was conducted with an internally developed software suite. […]

In the case of `Cc1cc(C(F)(F)F)cc(O)c1-c1ccc(NCC2COCCN2C)nn1` (racemic) [Ex 77, (rac)-3-Methyl-2-(6-(((4-methylmorpholin-3-yl)methyl)amino)pyridazin-3-yl)-5-(trifluoromethyl)phenol], the IC50 in the test on NLRP3 inflammasome is 61.9 nM; in test [1] it was more than 100000 nM.
On the same counts, the results for `Cc1cc(C(F)(F)F)cc(O)c1-c1ccc(N[C@@H]2CCC[C@H]2O)nn1` (relative stereo) [Ex 24, (trans)-2-(6-((2-Hydroxycyclopentyl)amino)pyridazin-3-yl)-3-methyl-5-(trifluoromethyl)phenol] are 120 nM and 37000 nM.
As for `Cc1cc(C(F)(F)F)cc(O)c1-c1ccc(N[C@H]2C[C@@](C)(O)C2)nn1` [Ex 2, 2-(6-(((cis)-3-Hydroxy-3-methylcyclobutyl)amino)pyridazin-3-yl)-3-methyl-5-(trifluoromethyl)phenol], the IC50 was 10.2 nM in the test with NLRP3 inflammasome and more than 100000 nM in test [1].
On to `Cc1cc(C(F)(F)F)cc(O)c1-c1ccc(N[C@@H]2CCC[C@H](O)C2)nn1` [Ex 3, 2-(6-(((1R,3S)-3-Hydroxycyclohexyl)amino)pyridazin-3-yl)-3-methyl-5-(trifluoromethyl)phenol], for which the IC50 was 25.5 nM in the test on NLRP3 inflammasome and more than 100000 nM in test [1].
Regarding `CCN1CCC[C@H]1CNc1ccc(-c2c(C)cc(C(F)(F)F)cc2O)nn1` [Ex 8, (S)-2-(6-(((1-Ethylpyrrolidin-2-yl)methyl)amino)pyridazin-3-yl)-3-methyl-5-(trifluoromethyl)phenol], the IC50 in the test on NLRP3 inflammasome was 24.1 nM; in test [1], more than 100000 nM.
For `Cc1cc(C(F)(F)F)cc(O)c1-c1ccc(NCC(O)(C(F)(F)F)C(F)(F)F)nn1` [Ex 10, 3-Methyl-2-(6-((3,3,3-trifluoro-2-hydroxy-2-(trifluoromethyl)propyl)amino)pyridazin-3-yl)-5-(trifluoromethyl)phenol], in that order: 349 nM and more than 33000 nM.
For `Cc1cc(C(F)(F)F)cc(O)c1-c1ccc(NC[C@H]2CCCN2)nn1` [Ex 14, (R)-3-Methyl-2-(6-((pyrrolidin-2-ylmethyl)amino)pyridazin-3-yl)-5-(trifluoromethyl)phenol], in that order: 85.7 nM and more than 100000 nM.
On the same counts, the results for `Cc1cc(C(F)(F)F)cc(O)c1-c1ccc(NCC(C)(C)O)nn1` [Ex 15, 2-(6-((2-Hydroxy-2-methylpropyl)amino)pyridazin-3-yl)-3-methyl-5-(trifluoromethyl)phenol] are 85.9 nM and more than 100000 nM.
For the compound `Cc1cc(C(F)(F)F)cc(O)c1-c1ccc(NCC(C)(C)N(C)C)nn1` [Ex 16, 2-(6-((2-(Dimethylamino)-2-methylpropyl)amino)pyridazin-3-yl)-3-methyl-5-(trifluoromethyl)phenol], the figures for the IC50 (in the test with NLRP3 inflammasome; in test [1]) were 36.3 nM and more than 100000 nM, respectively.
On the same counts, the results for `Cc1cc(C(F)(F)F)cc(O)c1-c1ccc(OCC(C)(C)O)nn1` [Ex 19, 2-(6-(2-Hydroxy-2-methylpropoxy)pyridazin-3-yl)-3-methyl-5-(trifluoromethyl)phenol] are 93.6 nM and more than 100000 nM.
For `Cc1cc(C(F)(F)F)cc(O)c1-c1ccc(NC[C@H]2CCCCN2)nn1` [Ex 20, (R)-3-Methyl-2-(6-((piperidin-2-ylmethyl)amino)pyridazin-3-yl)-5-(trifluoromethyl)phenol], in that order: 82.3 nM and more than 100000 nM.
For the compound `Cc1cc(C(F)(F)F)cc(O)c1-c1ccc(NC[C@@H]2CCCCN2)nn1` [Ex 21, (S)-3-Methyl-2-(6-((piperidin-2-ylmethyl)amino)pyridazin-3-yl)-5-(trifluoromethyl)phenol], the values for the IC50 (with NLRP3 inflammasome; in test [1]) were 48.4 nM and more than 100000 nM, respectively.
`Cc1cc(C(F)(F)F)cc(O)c1-c1ccc(NC[C@@H]2CC(F)(F)CN2)nn1` [Ex 22, (S)-2-(6-(((4,4-Difluoropyrrolidin-2-yl)methyl)amino)pyridazin-3-yl)-3-methyl-5-(trifluoromethyl)phenol]: the IC50 in the test with NLRP3 inflammasome is 80.7 nM; in test [1] it was more than 100000 nM.
`Cc1cc(C(F)(F)F)cc(O)c1-c1ccc(NC[C@H]2CC(F)(F)CN2)nn1` [Ex 23, (R)-2-(6-(((4,4-Difluoropyrrolidin-2-yl)methyl)amino)pyridazin-3-yl)-3-methyl-5-(trifluoromethyl)phenol]: the half-maximal inhibitory concentration (IC50) was 93.4 nM in the test with NLRP3 inflammasome and more than 100000 nM in test [1].
In the case of `Cc1cc(C(F)(F)F)cc(O)c1-c1cc(C(F)(F)F)c(NCCO)nn1` [Ex 26, 2-(6-((2-Hydroxyethyl)amino)-5-(trifluoromethyl)pyridazin-3-yl)-3-methyl-5-(trifluoromethyl)phenol], the IC50 in the test with NLRP3 inflammasome was 165 nM; in test [1] it was more than 100000 nM.
As for `Cc1cc(C(F)(F)F)cc(O)c1-c1ccc(NCc2ccccn2)nn1` [Ex 28, 3-Methyl-2-(6-((pyridin-2-ylmethyl)amino)pyridazin-3-yl)-5-(trifluoromethyl)phenol], the figures for the IC50 (in the test on NLRP3 inflammasome; in test [1]) were 288 nM and more than 100000 nM, respectively.
As to `Cc1cc(C(F)(F)F)cc(O)c1-c1ccc(N[C@H]2CC[C@@H](CO)N(C)C2)nn1` [Ex 87b, 2-(6-(((3S,6S)-6-(Hydroxymethyl)-1-methylpiperidin-3-yl)amino)pyridazin-3-yl)-3-methyl-5-(trifluoromethyl)phenol], inhibition in test [1] was half-maximal at 77000 nM (IC50).
Still for that read-out and setting: the value for `Cc1cc(C(F)(F)F)cc(O)c1-c1ccc(N[C@H]2CCCN[C@H]2C)nn1` [Ex 91a, 3-Methyl-2-(6-(((2S,3S)-2-methylpiperidin-3-yl)amino)pyridazin-3-yl)-5-(trifluoromethyl)phenol] was more than 100000 nM; that for `Cc1cc(C(F)(F)F)cc(O)c1-c1ccc(N[C@@H]2CCCN[C@@H]2C)nn1` [Ex 91b, 3-Methyl-2-(6-(((2R,3R)-2-methylpiperidin-3-yl)amino)pyridazin-3-yl)-5-(trifluoromethyl) phenol] was more than 100000 nM; that for `Cc1cc(C(F)(F)F)cc(O)c1-c1ccc(N[C@@H]2CCCN(C[C@H](C)O)C2)nn1` [Ex 92a, 2-(6-(((R)-1-((S)-2-Hydroxypropyl)piperidin-3-yl)amino)pyridazin-3-yl)-3-methyl-5-(trifluoromethyl)phenol] was more than 100000 nM.
Compound `Cc1cc(C(F)(F)F)cc(O)c1-c1ccc(N[C@@H]2C[C@H](O)CN(C)C2)nn1` [Ex 97, (3S,5R)-5-((6-(2-Hydroxy-6-methyl-4-(trifluoromethyl)phenyl)pyridazin-3-yl)amino)-1-methylpiperidin-3-ol] yielded an IC50 in test [1] of more than 100000 nM.
For the compound `Cc1cc(-c2c(C)cc(C(F)(F)F)cc2O)nnc1N[C@@H]1CCCNC1` [Ex 100, (R)-3-Methyl-2-(5-methyl-6-(piperidin-3-ylamino)pyridazin-3-yl)-5-(trifluoromethyl)phenol], the IC50 in test [1] is more than 100000 nM.
The compound `CCN1CCC[C@@H](Nc2nnc(-c3c(C)cc(C(F)(F)F)cc3O)cc2C)C1` [Ex 101, (R)-2-(6-((1-Ethylpiperidin-3-yl)amino)-5-methylpyridazin-3-yl)-3-methyl-5-(trifluoromethyl)-phenol] gave an IC50 in test [1] of more than 100000 nM.
Turning to `Cc1cc(-c2c(C)cc(C(F)(F)F)cc2O)nnc1N[C@@H]1CCCN(C)C1=O` [Ex 102, (R)-3-((6-(2-Hydroxy-6-methyl-4-(trifluoromethyl)phenyl)-4-methylpyridazin-3-yl)amino)-1-methylpiperidin-2-one], the IC50 with NLRP3 inflammasome amounted to 49 nM.

What is called IC50 is the point on the concentration scale where inhibition reaches its midpoint.

The values are drawn from patent US11208399B2, “NLRP3 inflammasome inhibitors” (Novartis AG, priority 2019, dated 2021).
